#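 GI50: concentration for 50% inhibition of growth. TGI denotes the concentration required for complete inhibition of growth.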
# Tests used:
# Test in all cases: NCI anticancer screen, dose series, 384-well format
# NCI-H226 lung = test system: NCI-H226 lung
# NCI-H23 lung = test system: NCI-H23 lung
# NCI-H322M lung = test system: NCI-H322M lung
# NCI-H460 NSCLC = test system: NCI-H460 NSCLC
# NCI-H522 lung = test system: NCI-H522 lung
# NCI/ADR-RES ovarian = test system: NCI/ADR-RES ovarian
# OVCAR-3 ovarian = test system: OVCAR-3 ovarian
# OVCAR-4 ovarian = test system: OVCAR-4 ovarian
# OVCAR-8 ovarian = test system: OVCAR-8 ovarian
# PC-3 prostate = test system: PC-3 prostate
# RPMI-8226 leukemia = test system: RPMI-8226 leukemia
# RXF 393 renal = test system: RXF 393 renal
# SF-268 CNS = test system: SF-268 CNS
# SF-295 CNS = test system: SF-295 CNS
# SF-539 CNS = test system: SF-539 CNS
# SK-MEL-28 melanoma = test system: SK-MEL-28 melanoma
# SK-MEL-5 melanoma = test system: SK-MEL-5 melanoma
# SK-OV-3 ovarian = test system: SK-OV-3 ovarian
# SN12C renal = test system: SN12C renal
# SNB-19 CNS = test system: SNB-19 CNS
# SNB-75 CNS = test system: SNB-75 CNS
# SR leukemia = test system: SR leukemia
# SW-620 colon = test system: SW-620 colon
# T-47D breast = test system: T-47D breast
# TK-10 renal = test system: TK-10 renal
# U251 glioblastoma = test system: U251 glioblastoma
# UACC-257 melanoma = test system: UACC-257 melanoma
# UACC-62 melanoma = test system: UACC-62 melanoma
# UO-31 renal = test system: UO-31 renal
structure (smiles),measurement,setting,value
CCN(Cc1cc(Nc2nc(C)cn3c(-c4cn[nH]c4)cnc23)sn1)C(C)(C)CO,GI50,NCI-H226 lung,< 10 nM
same,TGI,NCI-H226 lung,152 nM
same,GI50,NCI-H23 lung,40.9 nM
same,TGI,NCI-H23 lung,274 nM
same,GI50,NCI-H322M lung,69.2 nM
same,TGI,NCI-H322M lung,1660 nM
same,GI50,NCI-H460 NSCLC,26.1 nM
same,TGI,NCI-H460 NSCLC,1130 nM
same,GI50,NCI-H522 lung,< 10 nM
same,TGI,NCI-H522 lung,64.6 nM
same,GI50,NCI/ADR-RES ovarian,534 nM
same,TGI,NCI/ADR-RES ovarian,4080 nM
same,GI50,OVCAR-3 ovarian,16.3 nM
same,TGI,OVCAR-3 ovarian,204 nM
same,GI50,OVCAR-4 ovarian,114 nM
same,TGI,OVCAR-4 ovarian,357 nM
same,GI50,OVCAR-8 ovarian,21.3 nM
same,TGI,OVCAR-8 ovarian,188 nM
same,GI50,PC-3 prostate,21 nM
same,TGI,PC-3 prostate,2000 nM
same,GI50,RPMI-8226 leukemia,29.1 nM
same,TGI,RPMI-8226 leukemia,123 nM
same,GI50,RXF 393 renal,< 10 nM
same,TGI,RXF 393 renal,133 nM
same,GI50,SF-268 CNS,14.8 nM
same,TGI,SF-268 CNS,170 nM
same,GI50,SF-295 CNS,102 nM
same,TGI,SF-295 CNS,319 nM
same,GI50,SF-539 CNS,12 nM
same,TGI,SF-539 CNS,57.2 nM
same,GI50,SK-MEL-28 melanoma,169 nM
same,TGI,SK-MEL-28 melanoma,9720 nM
same,GI50,SK-MEL-5 melanoma,118 nM
same,TGI,SK-MEL-5 melanoma,537 nM
same,GI50,SK-OV-3 ovarian,< 10 nM
same,TGI,SK-OV-3 ovarian,41.1 nM
same,GI50,SN12C renal,13.7 nM
same,TGI,SN12C renal,61.3 nM
same,GI50,SNB-19 CNS,53.4 nM
same,TGI,SNB-19 CNS,1070 nM
same,GI50,SNB-75 CNS,10 nM
same,TGI,SNB-75 CNS,36.9 nM
same,GI50,SR leukemia,< 10 nM
same,TGI,SR leukemia,< 10 nM
same,GI50,SW-620 colon,16.3 nM
same,TGI,SW-620 colon,1360 nM
same,GI50,T-47D breast,1050 nM
same,TGI,T-47D breast,11400 nM
same,GI50,TK-10 renal,72.5 nM
same,TGI,TK-10 renal,378 nM
same,GI50,U251 glioblastoma,42.5 nM
same,TGI,U251 glioblastoma,1180 nM
same,GI50,UACC-257 melanoma,1070 nM
same,TGI,UACC-257 melanoma,2310 nM
same,GI50,UACC-62 melanoma,18.7 nM
same,TGI,UACC-62 melanoma,1270 nM
same,GI50,UO-31 renal,64.1 nM
same,TGI,UO-31 renal,1700 nM
